Assay results published in patent US11166959B2, “Isofuranone compounds useful as HPK1 inhibitors” (BRISTOL-MYERS SQUIBB COMPANY, priority 2017, dated 2021).
Where two headings read alike, the source gives them in different places.

Legend:
HPK1 = target: T1, HPK1 (Homo sapiens, UniProt Q92918); experiment: HPK1 Inhibition Assay (kinase reaction, Caliper capillary electrophoresis); assay type: biochemical; conditions: for IRAK4/HPK1 Ratio: ratio of the IRAK4 IC50 value to the HPK1 IC50 value
T1 construct: purchased SignalChem M23-11G
T1 sequence (Q92918 1-346 limits assumed): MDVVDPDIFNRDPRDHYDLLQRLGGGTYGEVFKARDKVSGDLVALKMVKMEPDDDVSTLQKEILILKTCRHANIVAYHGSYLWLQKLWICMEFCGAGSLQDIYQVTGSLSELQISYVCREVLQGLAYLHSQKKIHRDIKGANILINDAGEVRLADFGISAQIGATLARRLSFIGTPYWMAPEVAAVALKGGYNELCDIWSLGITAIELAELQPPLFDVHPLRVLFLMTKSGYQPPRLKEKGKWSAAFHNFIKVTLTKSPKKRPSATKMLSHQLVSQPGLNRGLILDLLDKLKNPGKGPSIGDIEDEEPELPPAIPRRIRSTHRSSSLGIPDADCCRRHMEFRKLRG
Outline: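 Kinase reactions ran 3 h and were stopped with 1 mM EDTA, with enzyme level and time set for at most 20-30% peptide substrate conversion. Phosphorylated and unphosphorylated peptide were separated by capillary electrophoresis to measure conversion. IC50 derived from 11 compound concentrations.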

IRAK4 = target: T2, IRAK4 (Homo sapiens, UniProt Q9NWZ3); experiment: IRAK4 Inhibition Assay (kinase reaction, Caliper capillary electrophoresis); assay type: biochemical; conditions: 500 μM ATP, 11 concentrations
T2 construct: 1 nM IRAK4 (160-460); purchased SignalChem M24016
T2 sequence (Q9NWZ3 160-460): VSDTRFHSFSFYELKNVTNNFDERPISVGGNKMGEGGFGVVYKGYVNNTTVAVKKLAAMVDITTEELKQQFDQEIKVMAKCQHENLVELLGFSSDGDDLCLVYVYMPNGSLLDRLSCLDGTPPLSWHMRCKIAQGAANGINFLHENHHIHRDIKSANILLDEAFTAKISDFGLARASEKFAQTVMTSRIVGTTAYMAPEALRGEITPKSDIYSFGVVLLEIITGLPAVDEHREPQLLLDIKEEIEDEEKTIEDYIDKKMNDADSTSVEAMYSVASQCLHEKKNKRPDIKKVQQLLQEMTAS

[1] = 0.625 nM HPK1, 22 μM ATP, 11 concentrations, read-out: HPK1 IC50

SMILES | IC50 (HPK1; [1]) | IRAK4/HPK1 Ratio (HPK1) | IC50 (IRAK4) | IC50 (HPK1)
CN(C)CCNC(=O)c1cnc(Nc2ccc3c(c2)C(C)(C)OC3=O)nc1N[C@H](CO)c1ccccc1 [Example 9, 2-[(3,3-dimethyl-1-oxo-1,3-dihydro-2-benzofuran-5-yl)amino]-N-[2-(dimethylamino)ethyl]-4-{[(1S)-2-hydroxy-1-phenylethyl]amino}pyrimidine-5-carboxamide] | < 50 nM | B (B=10 to 50) | 250 to 1000 nM | –
CC1(C)OC(=O)c2ccc(Nc3cc(NCc4nccs4)c(-c4nc(C56CCN(CC5)CC6)no4)cn3)nc21 [Example 84, 2-{[5-(3-{1-azabicyclo[2.2.2]octan-4-yl}-1,2,4-oxadiazol-5-yl)-4-{[(1,3-thiazol-2-yl)methyl]amino}pyridin-2-yl]amino}-7,7-dimethyl-5H,7H-furo[3,4-b]pyridin-5-one] | < 50 nM | C (C=>50) | 250 to 1000 nM | –
CC1(C)OC(=O)c2ccc(Nc3ncc(C(=O)NCc4ccccn4)c(N[C@H](CO)c4ccccc4)n3)cc21 [Example 6, 2-[(3,3-dimethyl-1-oxo-1,3-dihydro-2-benzofuran-5-yl)amino]-4-{[(1S)-2-hydroxy-1-phenylethyl]amino}-N-[(pyridin-2-yl)methyl]pyrimidine-5-carboxamide] | < 50 nM | B (B=10 to 50) | 50 to 250 nM | –
CC1(CNC(=O)c2cnc(Nc3ccc4c(c3)C(C)(C)OC4=O)nc2N[C@H](CO)c2ccccc2)COC1 [Example 23, 2-[(3,3-dimethyl-1-oxo-1,3-dihydro-2-benzofuran-5-yl)amino]-4-{[(1S)-2-hydroxy-1-phenylethyl]amino}-N-[(3-methyloxetan-3-yl)methyl]pyrimidine-5-carboxamide] | < 50 nM | B (B=10 to 50) | 250 to 1000 nM | –
CC1(C)OC(=O)c2ccc(Nc3ncc(C(=O)NCCCN4CCOCC4)c(N[C@H](CO)c4ccccc4)n3)cc21 [Example 7, 2-[(3,3-dimethyl-1-oxo-1,3-dihydro-2-benzofuran-5-yl)amino]-4-{[(1S)-2-hydroxy-1-phenylethyl]amino}-N-[3-(morpholin-4-yl)propyl]pyrimidine-5-carboxamide] | < 50 nM | B (B=10 to 50) | 250 to 1000 nM | –
CC1(C)OC(=O)c2ccc(Nc3ncc(-c4nnc(C(C)(O)C(F)(F)F)o4)c(N[C@H](CO)c4ccccc4)n3)cc21 (stereo partly drawn) [Example 65, 5-[(4-{[(1S)-2-hydroxy-1-phenylethyl]amino}-5-[5-(1,1,1-trifluoro-2-hydroxypropan-2-yl)-1,3,4-oxadiazol-2-yl]pyrimidin-2-yl)amino]-3,3-dimethyl-1,3-dihydro-2-benzofuran-1-one] | < 50 nM | B (B=10 to 50) | 250 to 1000 nM | –
CC1(C)OC(=O)c2ccc(Nc3ncc(C(=O)NCC4CN5CCC4CC5)c(N[C@H](CO)c4ccccc4)n3)cc21 (stereo partly drawn) [Example 25, N-({1-azabicyclo[2.2.2]octan-3-yl}methyl)-2-[(3,3-dimethyl-1-oxo-1,3-dihydro-2-benzofuran-5-yl)amino]-4-{[(1S)-2-hydroxy-1-phenylethyl]amino}pyrimidine-5-carboxamide] | – | B (B=10 to 50) | 250 to 1000 nM | < 50 nM
CC1(C)OC(=O)c2ccc(Nc3ncc(-c4nc(-c5cccc(F)c5)no4)c(N[C@H](CO)c4ccccc4)n3)cc21 [Example 45, 5-({5-[3-(3-fluorophenyl)-1,2,4-oxadiazol-5-yl]-4-{[(1S)-2-hydroxy-1-phenylethyl]amino}pyrimidin-2-yl}amino)-3,3-dimethyl-1,3-dihydro-2-benzofuran-1-one] | 50 to 250 nM | B (B=10 to 50) | 250 to 1000 nM | –
CC1(C)OC(=O)c2ccc(Nc3ncc(C(=O)NNC(=O)c4cccnc4)c(N[C@H](CO)c4ccccc4)n3)cc21 [Example 56, N′-{2-[(3,3-dimethyl-1-oxo-1,3-dihydro-2-benzofuran-5-yl)amino]-4-{[(1S)-2-hydroxy-1-phenylethyl]amino}pyrimidine-5-carbonyl}pyridine-3-carbohydrazide] | < 50 nM | B (B=10 to 50) | 250 to 1000 nM | –
